Reference: the NIST ThermoML archive (doi:10.1016/j.jct.2016.09.026)

Legend:
[1] = Crystal; DTA
[2] = Molar enthalpy of transition or fusion; details: Crystal; DSC
[3] = molar heat capacity at constant pressure; details: 101.33 kPa, Small sample (50 mg) DSC
[4] = molar enthalpy of vaporization or sublimation; details: 381.12 K; Liquid; Static calorimetry

CCCCCCC(=O)c1ccc(O)cc1 [1-(4-hydroxyphenyl)-1-heptanone]
Details | Molar enthalpy of transition or fusion [kcal/mol] | Normal melting temperature [°C] | molar enthalpy [kcal/mol]
[1] | – | 92 | –
[2] | 7.5 | – | –
[4] | – | – | 24.2

[3]
Details | molar heat capacity at constant pressure [J/K/mol]
288.67 K, Crystal | 291
289.17 K, Crystal | 292.2
289.67 K, Crystal | 289.9
290.17 K, Crystal | 290.9
290.68 K, Crystal | 292.7
291.18 K, Crystal | 295
291.68 K, Crystal | 296.8
292.18 K, Crystal | 295.6
292.69 K, Crystal | 295.3
293.19 K, Crystal | 296.8
293.69 K, Crystal | 295
294.19 K, Crystal | 297.4
294.69 K, Crystal | 297.4
295.19 K, Crystal | 296.8
295.69 K, Crystal | 301
296.19 K, Crystal | 302.3
296.7 K, Crystal | 300.1
297.2 K, Crystal | 300.6
297.7 K, Crystal | 300.7
298.2 K, Crystal | 300.2
298.7 K, Crystal | 303
299.2 K, Crystal | 302.5
299.7 K, Crystal | 304.8
300.2 K, Crystal | 307.5
300.7 K, Crystal | 306.2
301.2 K, Crystal | 305.9
301.7 K, Crystal | 306.8
302.2 K, Crystal | 306.5
302.7 K, Crystal | 307.3
303.2 K, Crystal | 308.7
303.7 K, Crystal | 307.9
304.2 K, Crystal | 309.2
304.7 K, Crystal | 311.7
305.2 K, Crystal | 310
305.7 K, Crystal | 309.6
306.2 K, Crystal | 311.9
306.7 K, Crystal | 312.9
307.2 K, Crystal | 311.4
307.7 K, Crystal | 311.2
308.2 K, Crystal | 310.6
308.7 K, Crystal | 313.4
309.2 K, Crystal | 314
309.7 K, Crystal | 314.4
310.2 K, Crystal | 315.8
310.7 K, Crystal | 314.9
311.2 K, Crystal | 316.7
311.7 K, Crystal | 318
312.2 K, Crystal | 317.3
312.7 K, Crystal | 318.1
313.2 K, Crystal | 319.2
313.7 K, Crystal | 320.9
314.2 K, Crystal | 320.5
314.7 K, Crystal | 319.8
315.2 K, Crystal | 319.7
315.7 K, Crystal | 323.3
316.2 K, Crystal | 322.8
316.7 K, Crystal | 323.2
317.2 K, Crystal | 324
317.7 K, Crystal | 323.8
318.2 K, Crystal | 325.7
318.7 K, Crystal | 324.1
319.2 K, Crystal | 327.1
319.7 K, Crystal | 327.1
320.2 K, Crystal | 324.7
320.7 K, Crystal | 327.1
321.2 K, Crystal | 328.9
321.7 K, Crystal | 328.9
322.2 K, Crystal | 330.3
322.7 K, Crystal | 329.6
323.2 K, Crystal | 331.2
323.7 K, Crystal | 332
324.2 K, Crystal | 330.5
324.7 K, Crystal | 331.9
325.2 K, Crystal | 333.5
325.7 K, Crystal | 333.6
326.2 K, Crystal | 334.4
326.7 K, Crystal | 335
327.2 K, Crystal | 335.2
327.7 K, Crystal | 334.1
328.2 K, Crystal | 335
328.7 K, Crystal | 337.4
329.2 K, Crystal | 336.3
329.7 K, Crystal | 338.1
330.2 K, Crystal | 338.7
330.7 K, Crystal | 337.8
331.2 K, Crystal | 338.5
331.7 K, Crystal | 339.5
332.2 K, Crystal | 340.3
332.7 K, Crystal | 342.3
333.2 K, Crystal | 341.3
333.7 K, Crystal | 342.1
334.2 K, Crystal | 343.3
334.7 K, Crystal | 343.6
335.2 K, Crystal | 343.9
335.7 K, Crystal | 346.5
336.2 K, Crystal | 344.9
336.7 K, Crystal | 346.6
337.2 K, Crystal | 346.4
337.7 K, Crystal | 346.9
338.2 K, Crystal | 349.4
338.7 K, Crystal | 347.8
339.19 K, Crystal | 348.2
339.69 K, Crystal | 348.7
340.2 K, Crystal | 350.4
340.7 K, Crystal | 352.5
341.2 K, Crystal | 350.7
341.7 K, Crystal | 350.7
342.2 K, Crystal | 351.4
342.7 K, Crystal | 351.7
343.19 K, Crystal | 353.4
343.69 K, Crystal | 353.1
344.19 K, Crystal | 353.4
344.69 K, Crystal | 356.8
345.19 K, Crystal | 357
345.69 K, Crystal | 355.2
346.19 K, Crystal | 357.3
346.69 K, Crystal | 357.3
347.19 K, Crystal | 358.3
347.69 K, Crystal | 359.2
348.19 K, Crystal | 360.3
348.69 K, Crystal | 361.6
349.19 K, Crystal | 362.4
349.69 K, Crystal | 360.9
350.19 K, Crystal | 361.8
350.69 K, Crystal | 363.3
351.19 K, Crystal | 364.3
351.69 K, Crystal | 363.9
352.19 K, Crystal | 363.4
352.69 K, Crystal | 366
353.19 K, Crystal | 365.4
353.69 K, Crystal | 368.2
354.19 K, Crystal | 369.3
354.69 K, Crystal | 370
355.19 K, Crystal | 372.4
355.69 K, Crystal | 375.2
356.19 K, Crystal | 373.6
356.69 K, Crystal | 374.5
357.19 K, Crystal | 374.8
357.69 K, Crystal | 380
358.19 K, Crystal | 380.1
358.69 K, Crystal | 381.4
359.19 K, Crystal | 382.3
359.69 K, Crystal | 387
360.19 K, Crystal | 391.3
360.69 K, Crystal | 393.9
361.19 K, Crystal | 397.9
361.69 K, Crystal | 403.5
362.19 K, Crystal | 413.1
362.69 K, Crystal | 424.4
363.19 K, Crystal | 446.7
370.2 K, Liquid | 458.6
370.7 K, Liquid | 460.1
371.19 K, Liquid | 461.4
371.69 K, Liquid | 461.5
372.19 K, Liquid | 463.4
372.69 K, Liquid | 462.1
373.19 K, Liquid | 464.1
373.69 K, Liquid | 465.7
374.19 K, Liquid | 465.5
374.69 K, Liquid | 467.4
375.19 K, Liquid | 464.3
375.69 K, Liquid | 466.6
376.19 K, Liquid | 466.5
376.69 K, Liquid | 466.6
377.19 K, Liquid | 467.5
377.69 K, Liquid | 468.1
378.19 K, Liquid | 470.5
378.69 K, Liquid | 469.8
379.19 K, Liquid | 468.2
379.69 K, Liquid | 471.2
380.19 K, Liquid | 470
380.69 K, Liquid | 474
381.19 K, Liquid | 473.3
381.69 K, Liquid | 474
382.19 K, Liquid | 470.5
382.69 K, Liquid | 473.3
383.19 K, Liquid | 472.6
383.69 K, Liquid | 473.7
384.19 K, Liquid | 474.9
384.69 K, Liquid | 477.4
385.19 K, Liquid | 480
385.69 K, Liquid | 481.1
386.19 K, Liquid | 482.1
386.69 K, Liquid | 479
